# Test results as given in the supplement of paper PMC7661543.
# ± gives the standard deviation of the averaged measurements.
# Legend:
# Test in all cases: relative cell number vs DMSO control (72 h) (% of DMSO); higher = less growth inhibition (more cells)
# Settings in all cases: sgRNA knockout: sgNT
# [1] = test system: BT-20
# Protocol: (§1)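 QMAP-Seq: a pool of 5 breast cancer cell lines (ZR-75-1, SKBR3, HCC-38, MDA-MB-231, BT-20), each carrying 12 doxycycline-inducible Cas9 sgRNA perturbations (11 knockouts plus non-targeting sgNT), was treated with compounds for 72 h at four 10-fold doses (10 nM-10 uM or 1 nM-1 uM range). Barcodes were amplified and sequenced, and cell number was interpolated from 293T spike-in standard curves. The result is expressed as % of the median of DMSO wells. Two biological replicates.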
# [2] = test system: ZR-75-1
# Protocol: as §1
# [3] = test system: HCC-38
# Protocol: as §1
# [4] = test system: SKBR3
# Protocol: as §1
# [5] = test system: MDA-MB-231
# Protocol: as §1
Structure (SMILES),relative cell number ([1]; 1 nM),relative cell number ([1]; 10 nM),relative cell number ([1]; 100 nM),relative cell number ([1]; 1000 nM),relative cell number ([2]; 1 nM),relative cell number ([2]; 10 nM),relative cell number ([2]; 100 nM),relative cell number ([2]; 1000 nM),relative cell number ([3]; 1 nM),relative cell number ([3]; 10 nM),relative cell number ([3]; 100 nM),relative cell number ([3]; 1000 nM),relative cell number ([4]; 1 nM),relative cell number ([4]; 10 nM),relative cell number ([4]; 100 nM),relative cell number ([4]; 1000 nM),relative cell number ([5]; 1 nM),relative cell number ([5]; 10 nM),relative cell number ([5]; 100 nM),relative cell number ([5]; 1000 nM),relative cell number ([1]; 10000 nM),relative cell number ([2]; 10000 nM),relative cell number ([3]; 10000 nM),relative cell number ([4]; 10000 nM),relative cell number ([5]; 10000 nM)
N#Cc1ccc(C(c2ccc(C#N)cc2)n2cncn2)cc1 [Letrozole],83 ± 35,89.6 ± 27,95.8 ± 6.8,104 ± 16,109 ± 14,93.6 ± 24,106 ± 30,60.6 ± 7.9,94.5 ± 6.1,107 ± 13,111 ± 12,95 ± 12,87.5 ± 18,97.5 ± 23,110 ± 22,121.06 ± 0.081,84.7 ± 9.7,109 ± 10,77.2 ± 7.3,106 ± 11,,,,,
Cc1ccc(F)c(NC(=O)Nc2ccc(-c3cccc4[nH]nc(N)c34)cc2)c1 [Linifanib],,73.8 ± 4.6,105 ± 23,89.1 ± 1,,86.4 ± 18,97.6 ± 3.9,93.6 ± 40,,94.4 ± 14,77.6 ± 10,118 ± 15,,88.8 ± 1.8,107 ± 3.3,121 ± 7.9,,70.5 ± 23,112 ± 30,100 ± 22,60.5 ± 3.3,33.4 ± 4.6,55.4 ± 4.2,40 ± 0.42,22.1 ± 0.58
C[C@]1(O)C[C@@H](c2nc(-c3ccc4ccc(-c5ccccc5)nc4c3)c3c(N)nccn32)C1 [Linsitinib],,111 ± 19,121 ± 28,79.2 ± 3.2,,90.6 ± 23,95.7 ± 6.6,70.9 ± 15,,95.4 ± 8,99.1 ± 12,78 ± 3.6,,94.7 ± 12,104 ± 18,78.71 ± 0.77,,116 ± 10,104 ± 14,65.3 ± 20,102 ± 11,65.7 ± 3.7,70.1 ± 4.4,78.1 ± 11,64.9 ± 13
Nc1nc(OCc2cc(Br)cs2)c2[nH]cnc2n1 [Lomeguatrib],,101 ± 13,115 ± 3.5,89.5 ± 11,,103 ± 42,127 ± 3.4,78.2 ± 47,,98.2 ± 6.3,88.5 ± 10,89.6 ± 22,,111 ± 1.7,68.1 ± 13,104 ± 14,,117 ± 22,125 ± 8.7,127.8 ± 0.46,93.7 ± 13,74.8 ± 5.2,81.9 ± 8.3,90.4 ± 27,86.4 ± 4.3
CC[C@H](C)C(=O)O[C@H]1C[C@@H](C)C=C2C=C[C@H](C)[C@H](CC[C@@H]3C[C@@H](O)CC(=O)O3)[C@H]21 [Lovastatin],,114 ± 20,78.7 ± 11,89.9 ± 35,,138 ± 33,67.2 ± 6.6,100.5 ± 0.94,,96.5 ± 11,85.9 ± 6.2,102 ± 22,,103 ± 22,81.1 ± 12,93.1 ± 11,,112 ± 28,52.2 ± 31,83 ± 29,78.8 ± 12,88.2 ± 6.5,73.4 ± 13,78.4 ± 22,15.7 ± 6.2
CC(C)C[C@@H](C=O)NC(=O)[C@H](CC(C)C)NC(=O)[C@H](CC(C)C)NC(=O)OCc1ccccc1 [MG132],,102 ± 21,113 ± 32,35.4 ± 8.1,,80.8 ± 16,97.1 ± 11,24.7 ± 3.3,,92.8 ± 13,95.7 ± 16,5.97 ± 0.84,,111 ± 7.2,99.3 ± 22,14 ± 1.8,,121 ± 1.8,77.3 ± 41,7.19 ± 1.8,12 ± 0.91,6.78 ± 1.8,8.104 ± 0.025,9.81 ± 0.2,7.81 ± 2.5
O=C(O)CC[C@H]1CC[C@@](c2cc(F)ccc2F)(S(=O)(=O)c2ccc(Cl)cc2)CC1 [MK0752],,137 ± 39,112 ± 41,145 ± 3.2,,120 ± 36,88.2 ± 30,107 ± 22,,135 ± 24,107 ± 2.6,112 ± 14,,172 ± 42,114 ± 19,107 ± 24,,170 ± 61,93.4 ± 20,124 ± 7.5,134 ± 1.4,127 ± 28,115 ± 43,111 ± 27,94.4 ± 51
C=CCn1c(=O)c2cnc(Nc3ccc(N4CCN(C)CC4)cc3)nc2n1-c1cccc(C(C)(C)O)n1 [MK1775],,95.2 ± 12,84.17 ± 0.44,42.9 ± 2.7,,138 ± 30,77.7 ± 43,51.7 ± 24,,97.2 ± 20,76.6 ± 6.7,35.3 ± 2.2,,112 ± 1.2,108 ± 18,29.8 ± 14,,81.5 ± 35,74 ± 8,20.3 ± 8,31.7 ± 1.8,15.6 ± 6,29.548 ± 0.018,14.7 ± 1.8,13.8 ± 6.6
CC(C)C[C@H](NC(=O)CNC(=O)c1cc(Cl)ccc1Cl)B(O)O [MLN2238],,85.1 ± 6.1,91 ± 27,40.2 ± 3.5,,93.7 ± 33,81.4 ± 28,17.8 ± 7.5,,91.7 ± 16,50.2 ± 2.5,5.9 ± 0.86,,87.5 ± 27,54.1 ± 9.5,9.25 ± 0.68,,94.1 ± 17,65.3 ± 5,8.44 ± 0.14,15 ± 6.4,10.9 ± 8,4.82 ± 1.7,2.47 ± 0.24,4.72 ± 0.16
Cc1ccc(NC(=O)c2ccc(CN3CCN(C)CC3)cc2)cc1Nc1nc(-c2cccnc2)cs1 [Masitinib],,92.1 ± 2.6,80.9 ± 25,95.2 ± 38,,70.6 ± 28,76.2 ± 9.5,94.7 ± 34,,106 ± 6.1,78.71 ± 0.36,76.6 ± 17,,78.7 ± 58,99.4 ± 23,67.4 ± 6.4,,91 ± 41,74.9 ± 12,64.2 ± 30,70.8 ± 23,34.2 ± 1.2,97.6 ± 2.4,66.6 ± 0.77,50.7 ± 4.3
COc1cc(-n2c(=S)[nH]c3ccccc3c2=O)c(Cl)cc1Cl [Mdivi1],,76.5 ± 8.6,98.8 ± 5.6,83.6 ± 2.9,,135 ± 44,77.9 ± 7.1,80.6 ± 2.8,,95.3 ± 11,93.4 ± 13,100 ± 10,,76 ± 18,104 ± 6.3,60 ± 1.5,,93.3 ± 18,84.9 ± 27,94.7 ± 11,84 ± 3.7,41.5 ± 26,83.1 ± 20,44.2 ± 5.5,50.1 ± 5.6
COC(=O)Nc1nc2cc(C(=O)c3ccccc3)ccc2[nH]1 [Mebendazole],,87.1 ± 7.3,78.9 ± 21,25 ± 7.1,,71.7 ± 21,64.7 ± 17,36.8 ± 8.2,,97.2 ± 18,83.2 ± 4.6,18.2 ± 7.5,,96.3 ± 10,59.8 ± 7.3,10.6 ± 9.4,,110 ± 10,79.4 ± 38,31.4 ± 12,20.6 ± 6.8,14 ± 8.6,19.9 ± 0.56,7.21 ± 5.9,26.5 ± 1.1
CN(Cc1cnc2nc(N)nc(N)c2n1)c1ccc(C(=O)N[C@@H](CCC(=O)O)C(=O)O)cc1 [Methotrexate],,98.43 ± 0.61,80.6 ± 3.4,51.2 ± 16,,89.6 ± 11,38.6 ± 12,40.6 ± 11,,105 ± 3.4,56 ± 1.1,41.2 ± 0.74,,116 ± 42,41 ± 1.5,22.1 ± 12,,97.5 ± 4.3,101 ± 17,91.2 ± 9.4,37.8 ± 12,36.9 ± 8,35.2 ± 0.52,25.5 ± 6.4,33.9 ± 8.7
O=C1c2c(O)ccc(O)c2C(=O)c2c(NCCNCCO)ccc(NCCNCCO)c21 [Mitoxantrone],,55 ± 13,39.2 ± 9.2,19.5 ± 5,,37.2 ± 4,22.3 ± 12,13.4 ± 1.2,,33.9 ± 2.3,30.46 ± 0.2,7.76 ± 0.68,,37.3 ± 21,22.3 ± 5.1,4.5 ± 0.26,,20.8 ± 7.3,17.3 ± 0.44,4.896 ± 0.008,5.45 ± 2,7.6 ± 0.68,7.21 ± 2.4,4.94 ± 3.2,6.65 ± 4.1
CCNC(=O)c1noc(-c2cc(C(C)C)c(O)cc2O)c1-c1ccc(CN2CCOCC2)cc1 [NVPAUY922],96.7 ± 24,81.1 ± 1.5,48 ± 3.7,37.9 ± 5.3,107 ± 6.7,89.8 ± 44,27.1 ± 1.1,25.7 ± 6.9,112 ± 16,67.6 ± 2.1,31.7 ± 5.1,30 ± 6,116 ± 31,78.6 ± 19,30 ± 8.8,18.5 ± 5.7,111 ± 40,71.4 ± 5.7,16 ± 4.2,9.36 ± 1.3,,,,,
CC1(C)CCC(c2ccc(Cl)cc2)=C(CN2CCN(c3ccc(C(=O)NS(=O)(=O)c4ccc(N[C@H](CCN5CCOCC5)CSc5ccccc5)c(S(=O)(=O)C(F)(F)F)c4)cc3)CC2)C1 [Navitoclax],,85.4 ± 11,90.6 ± 3.6,94.8 ± 3.5,,86.5 ± 10,95.5 ± 39,105 ± 11,,96.9 ± 14,102 ± 12,76.6 ± 12,,74.6 ± 24,117 ± 33,50 ± 18,,93.9 ± 27,108 ± 6.7,93.9 ± 13,78 ± 12,81.5 ± 24,47.9 ± 1.3,75.1 ± 14,52.5 ± 7.4
CN1C(=O)C(Cc2c[nH]c3ccccc23)NC1=S (stereo not given) [Necrostatin1],,110 ± 16,63.8 ± 8.2,82.9 ± 0.53,,76.9 ± 14,71.3 ± 29,78.3 ± 31,,110 ± 12,92.5 ± 3.2,105 ± 2.8,,89.8 ± 11,92.2 ± 8.2,60.4 ± 1.4,,97.3 ± 20,79.2 ± 7.1,97.7 ± 25,114 ± 14,84.6 ± 35,91.2 ± 2.3,68.6 ± 3.7,64.1 ± 3
COc1nc(N)nc2c1ncn2[C@@H]1O[C@H](CO)[C@@H](O)[C@@H]1O [Nelarabine],,90.5 ± 4.3,85.5 ± 1.7,94.9 ± 26,,85.5 ± 33,74.6 ± 23,81.7 ± 5.5,,113 ± 3.4,96.7 ± 16,99 ± 21,,100 ± 31,85.8 ± 2.9,101 ± 6.9,,82 ± 19,95.5 ± 4.6,104 ± 23,98 ± 15,109 ± 7.7,109 ± 4.1,91.7 ± 4.2,72 ± 26
CCOc1cc2ncc(C#N)c(Nc3ccc(OCc4ccccn4)c(Cl)c3)c2cc1NC(=O)/C=C/CN(C)C [Neratinib],,86.8 ± 7.5,99.2 ± 16,79.7 ± 16,,100 ± 32,73.9 ± 1.6,70.7 ± 6,,85 ± 2.7,101 ± 7,95.9 ± 12,,92.7 ± 6.7,70.3 ± 1.5,27.1 ± 5.3,,98.3 ± 10,74.1 ± 4,91.24 ± 0.32,51.4 ± 2.7,47.4 ± 0.48,50 ± 3.4,17.2 ± 0.58,46.6 ± 1.1
O=C(Nc1ccc([N+](=O)[O-])cc1Cl)c1cc(Cl)ccc1O [Niclosamide],,91.7 ± 20,109 ± 7,98.5 ± 3.8,,88.4 ± 14,104 ± 61,102 ± 80,,92.2 ± 13,92.62 ± 0.79,113 ± 7.2,,108 ± 7.6,83.6 ± 3.2,82.1 ± 19,,115 ± 21,119 ± 34,97.4 ± 20,55 ± 12,50.2 ± 10,46.5 ± 11,59.8 ± 2.1,37.7 ± 14
